The METLIN SMRT retention time set (Domingo-Almenara et al. 2019)

assay: gradient 5% acetonitrile 3 min, to 50% in 2 min, to 85% in 15 min, held 3 min, 100 µL/min; conditions: column: Zorbax Extend-C18 2.1 x 50 mm; eluents: water / acetonitrile, 0.1% formic acid
Method in brief: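 In both positive and negative ionization mode, a quadrupole time-of-flight mass spectrometer coupled to HPLC analyzed pure standards run in mixtures of ~100 molecules. The Zorbax Extend-C18 column (2.1 × 50 mm, 1.8 μm) was operated at 100 μL/min with water and acetonitrile, each containing 0.1% formic acid. The dead volume was 40 μL and the dwell volume 900 μL. Retention time came from adduct peaks that were computationally picked and individually inspected by hand.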

| RP-LC retention time [s] | SMILES |
| --- | --- |
| 699 | Cc1nc(N(C)C(=O)Cc2ccc(-c3ccccn3)cc2)sc1S(N)(=O)=O |
| 750 | O=c1cc(-c2ccccc2)oc2cc(O)c(O)cc12 |
| 730 | C=CCn1c(C)c(CC(=O)NCCC)c(=O)n2nc(-c3ccccc3)nc12 |
| 1300 | CC(C)Cn1c(=O)c2ccccc2n(Cc2nc(-c3ccc(C(F)(F)F)cc3)no2)c1=O |
| 599 | COc1ccc(-c2nc(Cn3ccnc3)no2)cc1 |
| 850 | Cc1cccc(Cl)c1NC(=O)/C=C/c1ccccc1 |
| 655 | O=C(c1ccc(Nc2c(-c3ccccc3)nc3cnccn23)cc1)N1CCOCC1 |
| 1210 | Cc1cc(C)cc(OCC(=O)Nc2nc(-c3ccccc3)cs2)c1 |
| 971 | O=C(Cn1cccc(-c2nc(-c3ccc(Cl)cc3)no2)c1=O)Nc1ccc(F)cc1F |
| 940 | O=C(Cn1cccc(-c2nc(-c3ccccc3)no2)c1=O)Nc1cccc(Br)c1 |
| 1130 | Cc1ccc(/C=C/c2nc(-c3ccc4oc(C)nc4c3)no2)o1 |
| 855 | CCc1nnc(NC(=O)CCc2ccc(-c3ccc(F)cc3)o2)s1 |
| 936 | COc1ccc(OC)c(NC(=O)N(C)CCc2noc(COc3ccccc3)n2)c1 |
| 610 | CNC(=O)c1cccc(Nc2c(-c3ccc(N(C)C)cc3)nc3cnccn23)c1 |
| 798 | COc1ccc(OC)c2c(C)cc(N3CCN(S(=O)(=O)c4ccc(C)cc4)CC3)nc12 |
| 946 | COc1cccc(-c2noc(C3CCCN3C(=O)Nc3ccc(OC)c(F)c3)n2)c1 (centres undefined) |
| 637 | COC(=O)c1ccc(C(=O)NCc2nc(C)no2)cc1 |
| 974 | CCOc1ccc(NC(=O)Cc2c(C)nn(-c3nc(C)cs3)c2C)cc1 |
| 704 | COc1ccc(NC(=O)C2CCCN(c3nnc4ccccn34)C2)cc1C(F)(F)F (centres undefined) |
| 764 | Fc1ccc(Cc2nc(-c3ccn4cnnc4c3)no2)cc1 |
| 1140 | CCn1nccc1-c1cccc(-c2noc(-c3ccc(C#N)cc3)n2)c1 |

The remaining lines, values behind:

| SMILES | RP-LC retention time [s] |
| --- | --- |
| CCOC(=O)c1sc(NC(=O)CCCC(=O)O)nc1-c1ccccc1 | 770 |
| CSc1ccc(NC(=O)C2CCN(C(=O)c3ncn4c3COC(c3ccc(F)cc3)C4)CC2)cc1 (centres undefined) | 864 |
| O=C(NC1CCCC1)C1CCCN(S(=O)(=O)c2c[nH]c(C(=O)N3CCCCCC3)c2)C1 (centres undefined) | 784 |
| COc1ccc(Cl)cc1S(=O)(=O)NCCc1cn(CC(C)C)c2ncccc12 | 987 |
| Cc1nc(-c2cn(C(C)C)c3ncccc23)sc1C(=O)N1CCCC(C)C1 (centres undefined) | 1050 |
| COCCC(=O)NC1CCN(c2ccc(C)c(C)c2)C1=O (centres undefined) | 688 |
| COc1ccc(S(=O)(=O)N2CCN(c3cc(C)nc(NC4CCCCC4)n3)CC2)cc1Cl | 851 |
| O=C(c1ccc(F)cc1F)N1CCN(c2nc(CN3CCCC3)cs2)CC1 | 613 |
| C[C@@H]1c2ccccc2CCN1C(=O)Cc1ccccc1F | 950 |
| CCN1CCCn2nc(C3CCN(C(=O)c4cccc(C(F)(F)F)c4)CC3)cc2C1=O | 785 |
| COc1ccc(N2CC(C(=O)N3CCC(C(=O)NC4CCS(=O)(=O)C4)CC3)CC2=O)cc1 (centres undefined) | 603 |
| Cc1ccnc(N2CCC(C(=O)NCCCN3CCCc4ccccc43)CC2)n1 | 665 |
| Cc1nn(-c2ccc(-c3ccccc3)nn2)c(C)c1S(=O)(=O)N1CCN(C)CC1 | 644 |
| CN1C(=O)CCc2cc(NS(=O)(=O)c3ccc(Cl)c(Cl)c3)ccc21 | 1040 |
| Cn1cc(CN2CCC(C(=O)NCCCc3ccccc3)CC2)c2cc(Cl)ccc21 | 753 |
| C=CCNC(=O)Cc1c(C)n(CC=C)c2nc(-c3ccccc3)nn2c1=O | 740 |
| O=C(NCCc1csc(-c2ccccc2)n1)C1CCN(S(=O)(=O)c2ccc(Cl)s2)CC1 | 1010 |
| Cc1nc(C2CN(S(=O)(=O)c3ccccc3F)CC23CCOCC3)no1 (centres undefined) | 812 |
| COc1ccccc1OCC(=O)NCC1CCOCC1 | 675 |
| CC(C)CNC(=O)CN1CCN(Cc2cccc(Cl)c2)C1=O | 748 |
| Cc1ccc2cc(CCC(=O)N3CCC4(CC3)OCCO4)c(=O)[nH]c2c1 | 688 |
| CCOc1ccc2nc(N3CCCC(C(=O)NCCc4ccc(S(N)(=O)=O)cc4)C3)sc2c1 (centres undefined) | 730 |
| COc1ccc(N2C=C(C(=O)N3CCOCC3)S(=O)(=O)c3ccc(F)cc32)cc1Cl | 762 |
